The values that follow come from PubChem BioAssay (NCI).

Common to all, as to assay: NCI tumour cell line growth inhibition, 48 h
The subject of assay [1] is 786-0 renal.
Assay [2] concerns A498 renal.
The subject of assay [3] is ACHN renal.
The subject of assay [4] is HCC-2998 colon.
The test system of assay [5] is SF-539 CNS.
For assay [6], the system named is SNB-19 CNS.
Assay [7] relates to T-47D breast.
The subject of assay [8] is UACC-62 melanoma.
The test system of assay [9] is HOP-92 NSCLC.

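Growth conditions: 96-well plates. Treatment: test compound, 48 hours, 5 concentrations. Analysis: linear interpolation between bracketing concentrations; unreached endpoints set to highest concentration. At the GI50, growth is halved. TGI denotes the concentration required for complete inhibition of growth.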

For `CC(C)(C)OC[C@H](O)CC#N`, the TGI in assay [1], in assay [2], in [3], in [4], in [5] and in assay [6] was > 100 µM throughout. Moreover, the TGI in assay [7] and in assay [8] was > 100 µM each time.
With `S=C(S)NCC1CCC(CNC(=S)S)CC1` (configuration not stated), the TGI in [1] was 18.6 µM; in [2] it was > 100 µM; in assay [3] it was 39.2 µM; in assay [4], 48.3 µM; in [5] it was > 100 µM; in assay [6], > 100 µM. Further, the TGI was 38.9 µM in assay [7] and > 100 µM in assay [8].
Consider `Cc1ccc(N=Nc2c(C)c(C#N)c(=S)n(C3OC(CO)C(O)C(O)C3O)c2-c2ccccc2)cc1` (configuration not stated), for which the TGI was 49.8 µM in assay [1]; 33.2 µM in assay [2]; > 100 µM in assay [3]; > 100 µM in assay [4]; 48.9 µM in assay [5]; 48.1 µM in assay [6]. Further, the TGI in [7] stood at 57.2 µM; in assay [8], 32 µM.
`CC(=O)OCC=C(CCl)CCC(Br)C(C)(C)Br` (mixture of isomers): the TGI in assay [1], in assay [2], in assay [3], in assay [4], in assay [5] and in assay [6] was > 10 µM throughout. Also, the TGI in assay [7] and in assay [8] was > 10 µM each time.
As for `C=C(C)C1CC=C(C)C2(C1)OCC(C)(C)C(C)O2` (configuration not stated), the TGI in assay [1] was found to be 33 µM; in assay [2] it was 28.9 µM; in [3] it was 40.9 µM; in assay [4], 93.2 µM; in assay [9] it was 23.6 µM; in assay [5] it was 48 µM. The figures for the TGI in assay [6], in assay [7] and in assay [8] were 33.3 µM, 55.4 µM and 30.4 µM, respectively.
Regarding `CC(=Nc1ccncc1)C(C)=Nc1ccncc1`, the TGI in assay [1] was > 100 µM; in [2], > 100 µM; in assay [3], 27.5 µM; in [4] it was 47.9 µM; in assay [9] it was 83.5 µM; in assay [5] it was 35.1 µM. The TGI is 68.5 µM in assay [6] and 77.7 µM in assay [7].
`C[N+](C)(C)c1ncnc2c1ncn2C1CCCCO1` (configuration not stated): the TGI in assay [1], in assay [2], in assay [3], in [9], in assay [6] and in assay [7] was > 100 µM each time. Also, the TGI in assay [8] is > 100 µM.
Take `Cc1ccc(S(=O)(=O)c2c(O)c3ccccc3n(C)c2=O)cc1`: the TGI in assay [1], in [2], in assay [9], in [5], in [6] and in [7] was > 100 µM throughout. The TGI in assay [8] is > 100 µM.
For `C[n+]1c2ccccc2c(C(=O)Nc2ccc(S(=O)(=O)N=C(N)N)cc2)c2ccccc21`, the TGI in [1], in assay [2], in assay [3], in assay [4], in [5] and in [6] was > 100 µM in each case. The TGI in assay [7] and in [8] was > 100 µM throughout.
Take `COc1cc(S(=O)(=O)Nc2ccc(C3=NNC(c4ccccc4)C3)cc2)ccc1F` (configuration not stated): the GI50 in assay [3] is 35.2 µM; in assay [4], 54.4 µM; in assay [5], 40 µM; in assay [6], > 100 µM; in [7], 54.2 µM. The TGI in assay [3] was > 100 µM; in assay [4] it was > 100 µM; in assay [5] it was > 100 µM; in assay [6], > 100 µM; in assay [7], > 100 µM; in assay [8], 45.2 µM.
For the compound `Oc1ccc(CCc2cc(O)cc(O)c2)cc1`, the TGI in [1], in assay [2], in assay [3], in [9], in assay [5] and in [6] was > 100 µM in each case. Further, the TGI in assay [7] and in [8] was > 100 µM throughout.
Turning to `COC(=O)C1(Cc2ccccc2)Cc2ccccc2C1`, the TGI in assay [1] is 81.9 µM; in assay [3], > 100 µM; in assay [4] it was 98.2 µM; in assay [9], 46.3 µM; in [5], > 100 µM; in assay [7], 90.8 µM. The same compound returned a TGI in [8] of 75.6 µM.
Regarding `NNC(=S)N1CCN(C(=S)NN)CC1`, the TGI in assay [1], in [2], in [3], in [4], in assay [9] and in [6] was > 100 µM throughout. In addition, the TGI in assay [7] and in assay [8] was > 100 µM each time.
Regarding `O=C1C(Br)=C(c2ccccc2)S(=O)c2ccccc21` (configuration not stated), the TGI stood at 7.62 µM in assay [1]; 6.53 µM in assay [3]; 27.9 µM in assay [4]; 36.8 µM in assay [9]; 12.9 µM in [5]; 39.9 µM in [6]. The TGI came to 10.6 µM in [7] and 26.6 µM in assay [8].
Regarding `CC(=O)O[C@H]1C(=O)[C@@]2(C)[C@H]([C@H](OC(=O)c3ccccc3)[C@]3(O)C[C@H](OC(=O)[C@H](O)[C@@H](NC(=O)CC(C)(C)C)c4ccccc4)C(C)=C1C3(C)C)C1(OC(C)=O)CO[C@@H]1C[C@@H]2O` (some centres not stated), the TGI is > 10 µM in assay [1]; > 10 µM in [2]; > 10 µM in [3]; 0.0418 µM in [4]; 0.00453 µM in assay [5]; > 10 µM in assay [6]. Further, the TGI in assay [7] and in assay [8] was > 10 µM throughout.
For `CC(=O)N1CCN(C23OC4(N5CCN(C(C)=O)CC5)C5C6CC(C7C6C4C72)C53)CC1` (configuration not stated), the TGI in [1], in assay [3], in [4], in assay [9], in assay [5] and in assay [6] was > 100 µM each time. The TGI in assay [7] and in assay [8] was > 100 µM in each case.
In the case of `COc1cc(C2S/C(=C/c3ccccc3)C(=O)N2c2ccc(Cl)c(Cl)c2)cc(OC)c1OC` (configuration not stated), the TGI in assay [1] was > 100 µM; in assay [2], > 82.4 µM; in assay [3] it was > 100 µM; in [4], > 100 µM; in assay [9], > 84.2 µM; in [6], > 100 µM. Moreover, in [7], the TGI is > 100 µM.
For the compound `CSC1=NS(=O)(=O)c2cc(C(=O)NN(C)C(=O)c3cc4c(cc3Cl)SC(SC)=NS4(=O)=O)c(Cl)cc2S1`, the TGI in assay [1], in assay [2], in assay [3], in assay [4], in [9] and in [5] was > 10 µM each time. The TGI in [6] and in [7] was > 10 µM each time.
With `O=C(N[C@H]1c2ccsc2/C(=N/O)[C@H]1O)C(F)(F)F`, the TGI in assay [2], in assay [4], in assay [9], in assay [5], in [6] and in assay [7] was > 100 µM each time. Further, the TGI in assay [8] was > 100 µM.
`CCc1ccc2c(c1)CC1(C2)Cc2cc3c(cc2C1)C(=O)CC3` (configuration not stated): the TGI in [1] was 60.2 µM; in [2], 46.4 µM; in assay [3] it was 63.9 µM; in [4], 47.1 µM; in assay [9] it was 52.7 µM; in assay [5] it was 61.4 µM. Also, the TGI in assay [7] is 85 µM; in assay [8], > 100 µM.
Take `CN(Cc1cnc2nc(N)nc(N)c2n1)c1ccc(C(=O)NC(CCC(=O)NC(P(=O)(O)O)P(=O)(O)O)C(=O)O)cc1` (configuration not stated): the TGI in [1] was > 100 µM; in assay [3], > 100 µM; in [9], > 100 µM; in assay [5], > 100 µM; in assay [6] it was 27.6 µM; in [7] it was > 100 µM. Moreover, the TGI in assay [8] is > 100 µM.
With `C/C(O)=C/c1nc2ccc([N+](=O)[O-])cc2nc1/C=C(/C)O`, the TGI is > 100 µM in assay [1]; 83.6 µM in [2]; > 100 µM in [3]; 84.3 µM in assay [9]; > 100 µM in assay [5]; > 100 µM in assay [6]. Further, the TGI is 87.6 µM in assay [7] and > 100 µM in assay [8].
With `Cc1c(-c2ccccc2)c(C#N)c2nnc(C(N)=O)c(N)n12`, the TGI in assay [1], in [2], in [3], in assay [4], in assay [5] and in assay [6] was > 100 µM throughout. Besides, the TGI in [7] and in [8] was > 100 µM each time.
Take `COc1cc(C2SCC(=O)N2c2ccc(Oc3ccc(Cl)cc3)c(Cl)c2)cc(OC)c1OC` (configuration not stated): the TGI in assay [1] was 33.9 µM; in [3], > 100 µM; in assay [4], > 100 µM; in assay [5], 54.2 µM; in assay [6], > 100 µM; in assay [7] it was 27.5 µM. Moreover, the TGI in assay [8] was 30.9 µM.
Consider `CN(C)CCNc1ncnc2nc(-c3ccc4ccccc4c3)[nH]c12`, for which the TGI in assay [1], in assay [3], in [4], in assay [6], in [7] and in [8] was > 100 µM each time.
With `NNc1nncn1N`, the TGI in assay [1], in [2], in assay [3], in assay [9], in assay [5] and in assay [6] was > 100 µM each time. Moreover, the TGI in [7] and in assay [8] was > 100 µM throughout.
Take `O=c1oc2ccc(Cl)cc2cc1-c1cn2cc(Cl)ccc2n1`: the TGI is > 100 µM in assay [1]; > 100 µM in assay [3]; > 100 µM in [4]; > 100 µM in assay [9]; > 100 µM in assay [5]; > 27.1 µM in assay [6]. Further, the TGI is > 100 µM in [7] and 15 µM in assay [8].
`CCOc1cc(C2CC(c3ccc(NS(=O)(=O)c4cc([N+](=O)[O-])ccc4C)cc3)=NN2)ccc1O` (configuration not stated): the TGI in assay [1] was 67.8 µM; in assay [2], 70.7 µM; in [3], 76.7 µM; in [9], > 100 µM; in [5] it was > 100 µM; in assay [6], > 100 µM. Besides, the TGI was 82.9 µM in assay [7] and 30.3 µM in assay [8].
Take `CC(C)CNC(=O)Cn1c(-c2ccccc2)cc2ccccc21`: the TGI in assay [1], in assay [3], in [4], in assay [5], in assay [6] and in assay [7] was > 100 µM throughout. Also, the TGI in [8] was > 100 µM.
As to `Cn1c2ccccc2c2c3c(c4c5ccccc5n(C)c4c21)C(=O)c1ccccc1C3=O`, the TGI in assay [1] was 31.7 µM; in [3], 97.3 µM; in assay [4] it was > 100 µM; in [9] it was > 100 µM; in assay [5], 51.1 µM; in assay [6], 52.4 µM. Further, the TGI in [7] and in assay [8] was > 100 µM each time.
For `CCO/C(O)=C(/C(=N)N1CCCC1)C(=O)Nc1cccc(C(F)(F)F)c1`, the TGI in [1] is > 100 µM; in assay [2], > 100 µM; in assay [3], > 100 µM; in [4], > 100 µM; in assay [5], 51.9 µM; in assay [6], > 100 µM. In addition, the TGI in [7] and in assay [8] was > 100 µM in each case.
For `COc1ccc(/C=C2\N=C(c3ccccc3)N(C3Nc4cc5c(cc4S3)NC(N3C(=O)/C(=C/c4ccc(OC)cc4)N=C3c3ccccc3)S5)C2=O)cc1` (configuration not stated), the TGI in assay [1] is > 100 µM; in assay [2] it was > 100 µM; in assay [3], > 100 µM; in assay [4] it was 97.7 µM; in assay [9] it was > 100 µM; in assay [5], 29.2 µM. Further, the TGI in assay [7] is > 100 µM.
On to `CC(=O)c1cc2ccccc2n(O)c1=N`, for which the TGI in [1], in assay [2], in [3], in assay [4], in assay [9] and in [5] was > 100 µM throughout. In addition, the TGI in assay [7] and in assay [8] was > 100 µM in each case.
